Test results from ChEMBL document CHEMBL1201862, “PubChem BioAssay data set” (2004).
Active and inactive are the calls of the source.

Legend:
[1] = target: T1, Aspartyl aminopeptidase (Plasmodium falciparum 3D7, UniProt Q8I2J3)
T1 sequence (Q8I2J3 whole entry): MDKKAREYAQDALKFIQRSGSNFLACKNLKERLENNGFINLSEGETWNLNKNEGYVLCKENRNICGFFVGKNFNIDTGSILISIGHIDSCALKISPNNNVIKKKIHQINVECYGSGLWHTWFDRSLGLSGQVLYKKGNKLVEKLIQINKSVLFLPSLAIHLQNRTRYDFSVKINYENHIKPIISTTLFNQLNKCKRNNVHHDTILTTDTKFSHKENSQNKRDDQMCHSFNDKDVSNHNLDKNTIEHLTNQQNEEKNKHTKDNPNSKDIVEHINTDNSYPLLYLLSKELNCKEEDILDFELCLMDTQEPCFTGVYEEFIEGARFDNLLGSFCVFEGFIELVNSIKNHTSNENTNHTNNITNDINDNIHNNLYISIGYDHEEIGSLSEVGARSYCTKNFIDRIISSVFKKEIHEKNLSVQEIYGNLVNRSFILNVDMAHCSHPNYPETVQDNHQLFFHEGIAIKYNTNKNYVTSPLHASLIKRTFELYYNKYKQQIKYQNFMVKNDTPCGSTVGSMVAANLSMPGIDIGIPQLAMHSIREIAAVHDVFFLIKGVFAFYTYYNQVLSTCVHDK

[2] = target: T2, Rac GTPase-activating protein 1 (Homo sapiens, UniProt Q9H0H5); test: MgcRacGAP GTPase-activating activity inhibitors, confirmation, biochemical, ADP Hunter fluorescence, primary and confirmatory (AID 624330); type: functional
T2 sequence (Q9H0H5 whole entry): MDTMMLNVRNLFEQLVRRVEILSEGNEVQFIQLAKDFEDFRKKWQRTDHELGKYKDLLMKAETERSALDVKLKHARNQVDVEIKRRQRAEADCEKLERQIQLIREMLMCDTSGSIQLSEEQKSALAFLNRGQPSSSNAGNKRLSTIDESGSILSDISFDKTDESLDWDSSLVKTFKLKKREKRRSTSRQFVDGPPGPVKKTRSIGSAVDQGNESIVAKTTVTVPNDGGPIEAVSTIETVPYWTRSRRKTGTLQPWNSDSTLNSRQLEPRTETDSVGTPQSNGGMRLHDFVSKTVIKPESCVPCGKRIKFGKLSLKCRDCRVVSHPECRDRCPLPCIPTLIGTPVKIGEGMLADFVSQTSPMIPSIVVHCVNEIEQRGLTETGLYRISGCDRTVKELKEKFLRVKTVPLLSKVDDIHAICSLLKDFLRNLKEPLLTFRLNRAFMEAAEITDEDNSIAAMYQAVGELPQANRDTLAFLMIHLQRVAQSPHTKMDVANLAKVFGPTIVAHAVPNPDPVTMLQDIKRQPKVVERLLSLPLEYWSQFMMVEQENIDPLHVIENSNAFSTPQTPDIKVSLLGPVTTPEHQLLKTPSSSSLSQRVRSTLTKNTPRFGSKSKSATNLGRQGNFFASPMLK

[3] = target: T3, Alkaline phosphatase, tissue-nonspecific isozyme (Homo sapiens, UniProt P05186); test: TNAP enzyme inhibition by screening hits, dose response, selectivity assay for mouse IAP inhibitor project, biochemical, human TNAP, uHTS hits (AID 488906); type: functional
T3 sequence (P05186 whole entry): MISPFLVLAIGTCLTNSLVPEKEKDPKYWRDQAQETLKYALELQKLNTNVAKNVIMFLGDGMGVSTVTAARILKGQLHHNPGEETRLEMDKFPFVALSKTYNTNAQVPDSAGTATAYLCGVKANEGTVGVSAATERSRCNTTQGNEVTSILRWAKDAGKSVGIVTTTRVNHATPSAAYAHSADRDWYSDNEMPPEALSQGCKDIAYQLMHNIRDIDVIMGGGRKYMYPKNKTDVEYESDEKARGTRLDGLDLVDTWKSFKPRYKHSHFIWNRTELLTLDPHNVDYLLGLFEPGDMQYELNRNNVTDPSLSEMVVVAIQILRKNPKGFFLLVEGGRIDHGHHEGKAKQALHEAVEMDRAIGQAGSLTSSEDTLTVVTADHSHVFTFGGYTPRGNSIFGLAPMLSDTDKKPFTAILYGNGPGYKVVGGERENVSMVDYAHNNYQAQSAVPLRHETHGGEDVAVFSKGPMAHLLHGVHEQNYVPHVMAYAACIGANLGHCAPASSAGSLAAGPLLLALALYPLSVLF

[4] = target: T4, Protein RecA (Mycobacterium tuberculosis, UniProt P9WHJ3); test: Fluorescence Cell-Free Homogeneous Dose Retest to Identify Inhibitors of RecA-Intein Splicing Activity. [Related pubchem assays (depositor defined):AID2097, AID2223, AID489010, AID492950]; type: functional
T4 sequence (P9WHJ3 whole entry): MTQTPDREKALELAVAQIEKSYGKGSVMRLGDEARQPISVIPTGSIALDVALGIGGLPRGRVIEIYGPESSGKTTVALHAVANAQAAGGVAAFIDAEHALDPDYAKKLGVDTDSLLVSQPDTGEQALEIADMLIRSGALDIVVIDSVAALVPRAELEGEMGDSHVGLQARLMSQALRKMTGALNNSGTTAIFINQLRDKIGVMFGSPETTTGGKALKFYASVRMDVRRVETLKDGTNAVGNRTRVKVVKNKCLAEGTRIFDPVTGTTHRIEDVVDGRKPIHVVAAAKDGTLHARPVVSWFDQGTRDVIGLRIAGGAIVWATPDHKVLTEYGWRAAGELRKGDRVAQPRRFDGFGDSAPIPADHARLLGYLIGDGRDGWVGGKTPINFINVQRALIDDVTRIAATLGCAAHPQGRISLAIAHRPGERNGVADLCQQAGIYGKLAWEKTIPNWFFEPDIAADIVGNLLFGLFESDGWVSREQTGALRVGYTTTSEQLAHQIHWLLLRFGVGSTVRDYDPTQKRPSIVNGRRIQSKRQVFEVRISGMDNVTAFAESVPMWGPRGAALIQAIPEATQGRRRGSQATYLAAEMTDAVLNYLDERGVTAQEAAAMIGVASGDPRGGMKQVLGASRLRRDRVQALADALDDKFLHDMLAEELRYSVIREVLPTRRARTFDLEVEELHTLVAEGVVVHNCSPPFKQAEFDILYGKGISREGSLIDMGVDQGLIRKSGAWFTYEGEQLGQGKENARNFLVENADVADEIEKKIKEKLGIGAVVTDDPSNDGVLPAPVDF

[5] = target: Intestinal-type alkaline phosphatase (Homo sapiens, UniProt P09923); test: activation of human intestinal alkaline phosphatase – biochemical, dose response (AID 488873); type: functional
Chain of Intestinal-type alkaline phosphatase (Homo sapiens, UniProt P09923) (P09923 whole entry): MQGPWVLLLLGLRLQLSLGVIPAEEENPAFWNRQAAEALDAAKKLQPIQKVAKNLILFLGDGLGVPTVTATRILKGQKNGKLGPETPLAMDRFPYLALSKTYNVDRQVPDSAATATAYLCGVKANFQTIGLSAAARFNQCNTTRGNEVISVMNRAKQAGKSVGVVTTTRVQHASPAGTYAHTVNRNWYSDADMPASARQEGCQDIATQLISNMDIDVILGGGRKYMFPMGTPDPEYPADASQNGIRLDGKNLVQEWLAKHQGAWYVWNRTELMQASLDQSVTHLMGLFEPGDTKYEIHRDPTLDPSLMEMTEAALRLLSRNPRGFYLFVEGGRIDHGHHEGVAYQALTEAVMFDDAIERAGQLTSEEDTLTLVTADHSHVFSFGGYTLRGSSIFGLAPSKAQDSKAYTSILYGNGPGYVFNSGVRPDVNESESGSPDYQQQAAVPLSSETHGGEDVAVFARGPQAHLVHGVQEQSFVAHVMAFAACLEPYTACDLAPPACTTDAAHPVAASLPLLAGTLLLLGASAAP

[6] = target: Procathepsin L (Homo sapiens, UniProt P07711)
Chain of Procathepsin L (P07711 whole entry): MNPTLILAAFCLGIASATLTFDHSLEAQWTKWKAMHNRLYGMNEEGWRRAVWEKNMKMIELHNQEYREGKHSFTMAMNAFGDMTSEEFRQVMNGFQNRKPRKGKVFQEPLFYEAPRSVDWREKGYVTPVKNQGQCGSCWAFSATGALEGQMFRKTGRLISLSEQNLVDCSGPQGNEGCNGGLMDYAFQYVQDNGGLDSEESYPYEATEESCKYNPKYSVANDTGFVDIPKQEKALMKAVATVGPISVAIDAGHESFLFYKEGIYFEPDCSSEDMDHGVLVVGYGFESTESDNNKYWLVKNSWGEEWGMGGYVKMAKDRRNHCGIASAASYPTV

[7] = target: T5, Replicative DNA helicase DnaB (Mycobacterium tuberculosis, UniProt P9WMR3); test: DnaB intein splicing inhibitors, dose response, biochemical, cell-free fluorescence (AID 449749); type: functional
T5 sequence (P9WMR3 whole entry): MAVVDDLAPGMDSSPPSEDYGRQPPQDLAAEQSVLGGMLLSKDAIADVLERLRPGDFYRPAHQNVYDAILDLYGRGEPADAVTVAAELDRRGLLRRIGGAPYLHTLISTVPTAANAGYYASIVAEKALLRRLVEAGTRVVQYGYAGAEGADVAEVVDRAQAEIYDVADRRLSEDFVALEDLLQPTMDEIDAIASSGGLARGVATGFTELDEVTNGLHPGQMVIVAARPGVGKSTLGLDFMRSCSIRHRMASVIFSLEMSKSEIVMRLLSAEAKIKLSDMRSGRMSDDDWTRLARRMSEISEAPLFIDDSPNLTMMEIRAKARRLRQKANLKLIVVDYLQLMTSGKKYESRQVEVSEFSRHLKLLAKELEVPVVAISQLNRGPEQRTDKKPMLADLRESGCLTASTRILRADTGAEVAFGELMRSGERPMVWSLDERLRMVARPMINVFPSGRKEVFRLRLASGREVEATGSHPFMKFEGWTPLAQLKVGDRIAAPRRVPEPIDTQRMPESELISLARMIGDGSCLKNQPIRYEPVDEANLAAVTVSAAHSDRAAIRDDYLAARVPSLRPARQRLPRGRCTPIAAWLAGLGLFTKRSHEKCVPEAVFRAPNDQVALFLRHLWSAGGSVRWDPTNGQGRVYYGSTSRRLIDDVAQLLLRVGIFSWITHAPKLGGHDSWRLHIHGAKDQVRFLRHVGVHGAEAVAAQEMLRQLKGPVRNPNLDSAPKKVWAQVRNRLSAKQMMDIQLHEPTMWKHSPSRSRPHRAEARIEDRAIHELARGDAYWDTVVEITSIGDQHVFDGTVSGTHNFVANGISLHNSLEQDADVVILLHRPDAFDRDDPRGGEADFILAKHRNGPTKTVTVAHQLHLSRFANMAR

[8] = target: Intestinal-type alkaline phosphatase (Mus musculus, UniProt P24822); test: PubChem AID 488785; type: functional
Chain of Intestinal-type alkaline phosphatase (Mus musculus, UniProt P24822) (P24822 whole entry): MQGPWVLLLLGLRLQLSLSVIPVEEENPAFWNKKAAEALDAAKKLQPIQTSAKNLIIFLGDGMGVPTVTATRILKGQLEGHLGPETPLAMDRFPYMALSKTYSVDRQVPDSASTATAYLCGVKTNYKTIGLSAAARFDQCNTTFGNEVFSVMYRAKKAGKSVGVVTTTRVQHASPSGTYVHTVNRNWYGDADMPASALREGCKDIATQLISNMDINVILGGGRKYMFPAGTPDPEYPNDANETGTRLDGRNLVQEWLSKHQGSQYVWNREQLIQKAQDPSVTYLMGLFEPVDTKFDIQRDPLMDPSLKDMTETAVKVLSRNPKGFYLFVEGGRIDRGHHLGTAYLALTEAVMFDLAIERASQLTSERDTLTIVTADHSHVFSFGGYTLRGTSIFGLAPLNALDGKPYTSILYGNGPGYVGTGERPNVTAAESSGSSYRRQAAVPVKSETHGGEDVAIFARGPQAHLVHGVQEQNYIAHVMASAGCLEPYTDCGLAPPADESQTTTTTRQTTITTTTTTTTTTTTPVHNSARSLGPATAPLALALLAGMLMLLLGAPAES

Oc1cc(O)c2c(c1)O[C@H](c1ccc(O)c(O)c1)[C@H](O)C2 [(-)-EPICATECHIN]
IC50 [1]: 1.38 µM (active) | IC50 [2]: 206 µM (active) | IC50 [3]: 0.407 µM (active) | EC50 [4]: > 380 µM (inconclusive) | EC50 [5]: > 100 µM (inactive) | IC50 [6]: > 59.6 µM (not active) | AC50 [7]: > 380 µM (inactive) | IC50 [8]: 1.36 µM (active)
